Experimental data from US10556888B2, “Pyrazole compounds or salts thereof, preparation methods therefor, herbicidal compositions and use thereof” (QINGDAO KINGAGROOT CHEMICAL COMPOUNDS CO., LTD, priority 2015, dated 2020).

Experiments:
[1] = test system: Monocotyledonous and dicotyledonous weed; experiment: Post-emergence test experiment, weed control effect (Table 2); assay type: in vivo; design: key to weed control effect, Setaria viridis (level) / weed control effect, Rorippa indica (level) / weed control effect, Abutilon theophrasti (level) / weed control effect, Echinochloa crus-galli (level) / weed control effect, Digitaria sanguinalis (level): Level 10: completely dead; Level 9: above 90% growth inhibition rate; Level 8: above 80% growth inhibition rate; Level 7: above 70% growth inhibition rate; Level 6: above 60% growth inhibition rate; Level 5: above 50% growth inhibition rate; Level 4: above 30% growth inhibition rate; Level 3: above 20% growth inhibition rate; Level 2: above 10% growth inhibition rate; Level 1: above 1-10% growth inhibition rate; Level 0: no effect; details: 30 g/ha, 3 weeks after spraying, greenhouse
Procedure, shortened: (§1)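 Weed and crop seeds (wheat, corn, rice, soybean, cotton, oilseed, millet, sorghum) grown in soil in greenhouse; sprayed at 2-3 leaf stage, 2-3 weeks after sowing, with compound in acetone/Tween 80/water. Effects assessed after 3 weeks further greenhouse culture.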

[2] = test system: main crop (wheat, corn, rice, soybean, cotton, oilseed, millet and sorghum); experiment: Post-emergence test experiment, main crops (Table 2); assay type: in vivo; design: key: Level 10: completely dead; Level 9: above 90% growth inhibition rate; Level 8: above 80% growth inhibition rate; Level 7: above 70% growth inhibition rate; Level 6: above 60% growth inhibition rate; Level 5: above 50% growth inhibition rate; Level 4: above 30% growth inhibition rate; Level 3: above 20% growth inhibition rate; Level 2: above 10% growth inhibition rate; Level 1: above 1-10% growth inhibition rate; Level 0: no effect; details: 30 g/ha, 3 weeks after spraying, greenhouse
Procedure, shortened: as §1

Row | SMILES | weed control effect, Abutilon theophrasti (level) [1] | weed control effect, Bidens pilosa (level) [1] | weed control effect, Digitaria sanguinalis (level) [1] | weed control effect, Echinochloa crus-galli (level) [1] | weed control effect, Rorippa indica (level) [1] | weed control effect, Setaria viridis (level) [1] | effect on crop, corn (level) [2] | effect on crop, rice (level) [2] | effect on crop, wheat (level) [2]
1 | COCCCOCc1c(S(C)(=O)=O)ccc(C(=O)c2cnn(C)c2OC(=O)c2cn(C)nc2C)c1Cl [Compound 53] | 7 (Level 7: above 70% growth inhibition rate) | 7 (Level 7: above 70% growth inhibition rate) | 8 (Level 8: above 80% growth inhibition rate) | 10 | 10 | 6 (Level 6: above 60% growth inhibition rate) | 1 (Level 1: above 1-10% growth inhibition rate) | 3 (Level 3: above 20% growth inhibition rate) | 0
2 | CCOc1c(C(=O)Oc2c(C(=O)c3ccc(S(C)(=O)=O)c(COCC(F)(F)F)c3Cl)cnn2C)cnn1C [Compound 54] | 7 (Level 7: above 70% growth inhibition rate) | 7 (Level 7: above 70% growth inhibition rate) | 7 (Level 7: above 70% growth inhibition rate) | 10 | 10 | 10 | 1 (Level 1: above 1-10% growth inhibition rate) | 3 (Level 3: above 20% growth inhibition rate) | 0
3 | CCOc1c(C(=O)Oc2c(C(=O)c3ccc(S(C)(=O)=O)c(COCC(F)(F)F)c3Cl)c(C)nn2C)cnn1C [Compound 55] | 7 (Level 7: above 70% growth inhibition rate) | 7 (Level 7: above 70% growth inhibition rate) | 10 | 10 | 10 | 10 | 2 (Level 2: above 10% growth inhibition rate) | 3 (Level 3: above 20% growth inhibition rate) | 0
4 | C#CCOCc1c(S(C)(=O)=O)ccc(C(=O)c2c(C)nn(C)c2OC(=O)c2cnn(C)c2OCC)c1Cl [Compound 56] | 7 (Level 7: above 70% growth inhibition rate) | 7 (Level 7: above 70% growth inhibition rate) | 7 (Level 7: above 70% growth inhibition rate) | 10 | 10 | 9 (Level 9: above 90% growth inhibition rate) | 0 | 3 (Level 3: above 20% growth inhibition rate) | 0
5 | CCOc1c(C(=O)Oc2c(C(=O)c3ccc(S(C)(=O)=O)c(COCC(F)F)c3Cl)cnn2C)cnn1C [Compound 57] | 7 (Level 7: above 70% growth inhibition rate) | 7 (Level 7: above 70% growth inhibition rate) | 7 (Level 7: above 70% growth inhibition rate) | 10 | 10 | 9 (Level 9: above 90% growth inhibition rate) | 0 | 3 (Level 3: above 20% growth inhibition rate) | 0
